According to ChEMBL document CHEMBL5338786, “In Silico-Guided Rational Drug Design and Synthesis of Novel 4-(Thiophen-2-yl)butanamides as Potent and Selective TRPV1 Agonists” (J Med Chem, 2023):
The source made the active and inactive calls.

Assays:
[1] = molecular target: T1, Transient receptor potential cation channel subfamily A member 1 (Rattus norvegicus, UniProt Q6RI86); assay: (§1) Agonist activity at rat recombinant TRPA1 expressed in HEK293 cells assessed as increase in intracellular calcium accumulation by Fluo4-AM based assay; type: cell-based
[2] = molecular target: T1, Transient receptor potential cation channel subfamily A member 1; assay: Antagonist activity at rat recombinant TRPA1 expressed in HEK293 cells assessed as desensitization by measuring inhibition of allyl isothiocyanate induced intracellular calcium accumulation preincubated for 5 mins followed by allyl isothiocyanate stimulation by Fluo4-AM based assay; type: cell-based
[3] = molecular target: T2, Transient receptor potential cation channel subfamily V member 1 (Homo sapiens, UniProt Q8NER1); assay: Agonist activity at human recombinant TRPV1 expressed in HEK293 cells assessed as increase in intracellular calcium level by Fluo4-AM based assay; type: cell-based
[4] = molecular target: T2, Transient receptor potential cation channel subfamily V member 1; assay: Antagonist activity at human recombinant TRPV1 expressed in HEK293 cells assessed as desensitization by measuring inhibition of capsaicin-induced intracellular calcium accumulation preincubated for 5 mins followed by capsaicin stimulation by Fluo4-AM based assay; type: cell-based
[5] = molecular target: Transient receptor potential cation channel subfamily A member 1 (Rattus norvegicus) (UniProt Q6RI86); assay: Agonist activity at rat recombinant TRPA1 expressed in HEK293 cells assessed as increase in intracellular calcium accumulation by measuring efficacy by Fluo4-AM based assay relative to allyl isothiocyanate; type: cell-based
[6] = molecular target: Transient receptor potential cation channel subfamily A member 1 (Rattus norvegicus) (UniProt Q6RI86); assay: as §1; type: cell-based
[7] = molecular target: Transient receptor potential cation channel subfamily V member 4 (Rattus norvegicus) (UniProt Q9ERZ8); assay: Agonist activity at rat recombinant TRPV4 expressed in HEK293 cells assessed as increase in intracellular calcium accumulation by measuring efficacy by Fluo4-AM based assay relative to ionomycin; type: cell-based; settings: filed as agonist
HUVEC = assay: Cytotoxicity against HUVEC cells expressing TRPV1 receptors assessed as reduction in cell viability at 0.1 to 10 uM measured after 48 hrs by Alamar Blue assay; type: toxicity, cell-based; settings: human, dose 0.1-10 µM
HaCaT = assay: Cytotoxicity against human HaCaT cells expressing TRPV1 receptors assessed as reduction in cell viability at 0.1 to 10 uM measured after 48 hrs by Alamar Blue assay; type: toxicity, cell-based; settings: dose 0.1-10 µM
[8] = molecular target: Transient receptor potential cation channel subfamily V member 4 (Rattus norvegicus, UniProt Q9ERZ8); assay: Antagonist activity at rat recombinant TRPV4 expressed in HEK293 cells assessed as desensitization by measuring inhibition of GSK1016790A induced intracellular calcium accumulation preincubated for 5 mins by Fluo4-AM based assay; type: cell-based
[9] = molecular target: Transient receptor potential cation channel subfamily M member 8 (Rattus norvegicus, UniProt Q8R455); assay: Antagonist activity at rat recombinant TRPM8 expressed in HEK293 cells assessed as desensitization by measuring inhibition of icilin induced intracellular calcium accumulation preincubated for 5 mins by Fluo4-AM based assay; type: cell-based
Mus musculus [10] = assay: Antinociceptive activity against formalin-induced nociception in C57BL/6J mouse assessed as total time of nociceptive response at 0.0015 ug per paw, sc pretreated for 10 min followed by formalin challenge and measured after 20 to 60 mins (reference value: 2.18 +/- 0.183 min); type: functional; settings: dose 0.0015 µg, time 30-70 min
Mus musculus [11] = assay: Antinociceptive activity against formalin-induced nociception in C57BL/6J mouse assessed as total time of nociceptive response at 0.15 ug per paw, sc pretreated for 10 min followed by formalin challenge and measured after 20 to 60 mins (reference value: 2.18 +/- 0.183 min); type: functional; settings: dose 0.15 µg, time 30-70 min
Mus musculus [12] = assay: Antinociceptive activity against formalin-induced nociception in C57BL/6J mouse assessed as total time of nociceptive response at 0.0075 ug per paw, sc pretreated for 10 min followed by formalin challenge and measured after 20 to 60 mins (reference value: 2.18 +/- 0.183 min); type: functional; settings: dose 0.0075 µg, time 30-70 min
[13] = Toxicity in C57BL/6J mouse assessed as alteration in nociceptive threshold at 0.0075 to 0.15 ug per paw, sc measured after 10 mins; type: organism-based; settings: in vivo, dose 0.0075-0.15 µg

Transient receptor potential cation channel subfamily M member 8, sequence (Q8R455 whole entry): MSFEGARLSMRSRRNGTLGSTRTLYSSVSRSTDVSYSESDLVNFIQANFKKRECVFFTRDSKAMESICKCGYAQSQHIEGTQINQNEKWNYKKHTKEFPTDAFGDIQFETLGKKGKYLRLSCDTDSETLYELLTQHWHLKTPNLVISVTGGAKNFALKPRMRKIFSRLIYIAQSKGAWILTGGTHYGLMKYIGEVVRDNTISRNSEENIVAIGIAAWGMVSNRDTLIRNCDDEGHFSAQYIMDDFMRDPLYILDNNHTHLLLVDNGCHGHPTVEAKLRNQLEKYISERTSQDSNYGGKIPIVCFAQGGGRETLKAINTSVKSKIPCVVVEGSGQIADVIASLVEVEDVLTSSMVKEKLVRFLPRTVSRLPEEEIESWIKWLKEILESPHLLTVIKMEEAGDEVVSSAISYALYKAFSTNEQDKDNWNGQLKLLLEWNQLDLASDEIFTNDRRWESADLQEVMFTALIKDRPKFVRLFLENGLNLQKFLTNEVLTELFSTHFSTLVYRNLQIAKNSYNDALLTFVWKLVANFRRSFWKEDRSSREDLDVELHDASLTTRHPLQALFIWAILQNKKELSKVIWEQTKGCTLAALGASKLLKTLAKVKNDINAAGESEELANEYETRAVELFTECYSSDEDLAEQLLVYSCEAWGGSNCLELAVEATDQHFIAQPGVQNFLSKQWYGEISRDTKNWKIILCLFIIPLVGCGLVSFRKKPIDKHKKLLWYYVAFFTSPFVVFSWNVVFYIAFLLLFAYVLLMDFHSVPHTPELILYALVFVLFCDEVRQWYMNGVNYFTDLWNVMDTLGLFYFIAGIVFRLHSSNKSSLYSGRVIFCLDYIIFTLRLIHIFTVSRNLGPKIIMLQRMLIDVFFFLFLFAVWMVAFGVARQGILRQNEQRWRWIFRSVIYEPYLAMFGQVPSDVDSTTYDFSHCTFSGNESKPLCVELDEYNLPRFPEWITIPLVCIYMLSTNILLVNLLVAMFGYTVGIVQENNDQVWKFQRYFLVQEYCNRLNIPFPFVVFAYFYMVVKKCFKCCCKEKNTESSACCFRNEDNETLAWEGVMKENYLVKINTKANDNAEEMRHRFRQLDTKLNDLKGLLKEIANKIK
T1 sequence (Q6RI86 whole entry): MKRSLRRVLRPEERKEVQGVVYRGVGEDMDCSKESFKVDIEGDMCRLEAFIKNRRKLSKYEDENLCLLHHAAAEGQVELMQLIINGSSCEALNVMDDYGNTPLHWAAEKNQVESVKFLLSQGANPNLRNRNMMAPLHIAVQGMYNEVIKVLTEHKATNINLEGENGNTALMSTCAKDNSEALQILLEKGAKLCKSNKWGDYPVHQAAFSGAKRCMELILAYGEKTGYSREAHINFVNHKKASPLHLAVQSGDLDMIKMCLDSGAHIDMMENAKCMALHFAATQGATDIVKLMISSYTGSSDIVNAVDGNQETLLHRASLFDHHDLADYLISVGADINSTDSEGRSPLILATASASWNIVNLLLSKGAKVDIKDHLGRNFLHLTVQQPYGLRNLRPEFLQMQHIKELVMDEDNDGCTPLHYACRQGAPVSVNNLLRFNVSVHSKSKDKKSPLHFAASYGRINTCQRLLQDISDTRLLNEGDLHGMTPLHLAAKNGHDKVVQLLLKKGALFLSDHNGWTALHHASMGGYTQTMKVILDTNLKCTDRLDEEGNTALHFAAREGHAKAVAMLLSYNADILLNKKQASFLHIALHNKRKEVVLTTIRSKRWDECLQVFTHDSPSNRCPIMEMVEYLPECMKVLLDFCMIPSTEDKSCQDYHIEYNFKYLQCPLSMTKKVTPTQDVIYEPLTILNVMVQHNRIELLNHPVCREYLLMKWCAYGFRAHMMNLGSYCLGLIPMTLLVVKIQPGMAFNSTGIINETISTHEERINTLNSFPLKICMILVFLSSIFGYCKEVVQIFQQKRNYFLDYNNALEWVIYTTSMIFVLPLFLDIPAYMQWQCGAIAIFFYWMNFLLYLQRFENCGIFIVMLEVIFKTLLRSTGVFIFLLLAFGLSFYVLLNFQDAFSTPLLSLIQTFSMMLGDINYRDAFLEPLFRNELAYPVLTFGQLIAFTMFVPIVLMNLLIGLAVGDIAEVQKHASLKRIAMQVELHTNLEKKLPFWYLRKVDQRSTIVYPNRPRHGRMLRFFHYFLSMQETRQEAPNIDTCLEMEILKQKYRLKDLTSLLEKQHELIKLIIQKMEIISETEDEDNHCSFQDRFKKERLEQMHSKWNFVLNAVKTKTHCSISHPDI
Transient receptor potential cation channel subfamily A member 1 (Rattus norvegicus), sequence (Q6RI86 whole entry): as above
Transient receptor potential cation channel subfamily V member 4, sequence (Q9ERZ8 whole entry): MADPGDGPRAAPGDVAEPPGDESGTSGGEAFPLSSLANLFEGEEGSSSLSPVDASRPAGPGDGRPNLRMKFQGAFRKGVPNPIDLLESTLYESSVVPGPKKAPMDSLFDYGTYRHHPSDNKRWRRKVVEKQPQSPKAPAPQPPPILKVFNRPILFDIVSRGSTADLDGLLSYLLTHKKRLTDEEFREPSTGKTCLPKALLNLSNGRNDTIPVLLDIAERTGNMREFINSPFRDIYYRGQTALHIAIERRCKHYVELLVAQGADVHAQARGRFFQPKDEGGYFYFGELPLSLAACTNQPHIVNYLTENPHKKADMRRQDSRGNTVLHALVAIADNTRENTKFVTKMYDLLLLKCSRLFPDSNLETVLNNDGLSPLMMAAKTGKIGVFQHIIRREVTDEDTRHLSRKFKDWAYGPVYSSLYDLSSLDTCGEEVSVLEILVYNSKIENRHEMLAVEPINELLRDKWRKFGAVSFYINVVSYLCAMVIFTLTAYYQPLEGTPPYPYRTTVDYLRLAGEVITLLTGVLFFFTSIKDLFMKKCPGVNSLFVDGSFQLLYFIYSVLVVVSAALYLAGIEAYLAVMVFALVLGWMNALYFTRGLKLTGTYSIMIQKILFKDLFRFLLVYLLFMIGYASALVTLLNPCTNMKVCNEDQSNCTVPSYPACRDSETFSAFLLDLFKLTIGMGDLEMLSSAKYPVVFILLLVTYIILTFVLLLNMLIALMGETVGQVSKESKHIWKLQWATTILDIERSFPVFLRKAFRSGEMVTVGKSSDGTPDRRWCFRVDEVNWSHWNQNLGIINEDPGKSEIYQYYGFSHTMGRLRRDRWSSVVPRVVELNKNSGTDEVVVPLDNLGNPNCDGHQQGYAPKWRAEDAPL
T2 sequence (Q8NER1 whole entry): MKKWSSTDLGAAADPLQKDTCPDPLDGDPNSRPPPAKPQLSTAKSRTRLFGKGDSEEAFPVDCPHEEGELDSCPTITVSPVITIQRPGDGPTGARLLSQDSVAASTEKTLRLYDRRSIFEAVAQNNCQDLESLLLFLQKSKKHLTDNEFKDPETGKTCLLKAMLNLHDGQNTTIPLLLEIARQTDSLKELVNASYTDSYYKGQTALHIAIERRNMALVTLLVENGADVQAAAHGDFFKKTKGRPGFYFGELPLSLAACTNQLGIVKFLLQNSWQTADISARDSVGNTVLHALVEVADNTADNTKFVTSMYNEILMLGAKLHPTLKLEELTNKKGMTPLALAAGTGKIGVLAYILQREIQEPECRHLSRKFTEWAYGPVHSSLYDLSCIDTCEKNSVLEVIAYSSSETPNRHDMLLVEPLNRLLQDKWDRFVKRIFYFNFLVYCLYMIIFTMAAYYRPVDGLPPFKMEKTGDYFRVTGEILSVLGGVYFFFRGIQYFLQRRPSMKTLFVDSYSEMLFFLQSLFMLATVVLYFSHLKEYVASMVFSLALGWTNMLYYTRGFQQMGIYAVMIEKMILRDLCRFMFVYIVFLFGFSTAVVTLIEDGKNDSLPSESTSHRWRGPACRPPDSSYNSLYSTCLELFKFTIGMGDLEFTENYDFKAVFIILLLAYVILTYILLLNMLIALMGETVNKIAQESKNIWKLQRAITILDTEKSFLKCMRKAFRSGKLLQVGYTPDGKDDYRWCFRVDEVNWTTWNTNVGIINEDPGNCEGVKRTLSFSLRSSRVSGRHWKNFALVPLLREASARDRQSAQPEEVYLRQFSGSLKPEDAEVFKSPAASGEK
Transient receptor potential cation channel subfamily V member 4 (Rattus norvegicus), sequence (Q9ERZ8 whole entry): as the sequence (Q9ERZ8 whole entry) above

O=C(CCCc1ccc(I)s1)NCc1ccc(Cl)c(Cl)c1
EC50 [1]: > 50 µM
IC50 [2]: 19.2 µM

O=C(CCCc1ccc(-c2ccccc2)s1)Nc1ccc(O)cc1
IC50 [2]: > 50 µM

O=C(CCCc1ccccc1)NCCc1ccc(O)c(O)c1
EC50 [3]: 2.63 µM
IC50 [4]: 5.84 µM
Efficacy [5]: < 10%
Activity [6]: inactive
IC50 [2]: > 10 µM

O=C(CCCc1ccc(I)s1)NCCc1ccc(O)c(O)c1
EC50 [3]: 1.15 µM
IC50 [4]: 0.46 µM
Efficacy [5]: < 10%
Activity [6]: inactive
IC50 [2]: > 100 µM

O=C(CCCc1ccc(-c2cccnc2)s1)Nc1ccc(O)cc1
IC50 [2]: > 100 µM

O=C(CCCc1ccccc1)NCc1ccc(O)cc1
IC50 [2]: > 100 µM

O=C(CCCc1ccc(I)s1)NCc1ccc(O)cc1
IC50 [2]: > 100 µM

O=C(CCCc1ccc(-c2cccnc2)s1)NCc1ccc(Cl)c(Cl)c1
EC50 [1]: 10.4 µM
IC50 [2]: > 50 µM

CC(C)C[C@H](NC(=O)c1cc2ccccc2s1)C(=O)N1CCN(C(=O)[C@H](CO)NS(=O)(=O)c2ccc(Cl)cc2Cl)CC1
Efficacy [7]: 88.5%

O=C(CCCc1ccc(I)s1)NCc1ccccc1
IC50 [2]: > 100 µM

O=C(CCCc1cccs1)NCc1ccccc1
IC50 [2]: > 100 µM

O=C(CCCc1ccc(-c2ccccc2)s1)NCc1ccccc1
IC50 [2]: > 100 µM

O=C(CCCc1ccccc1)Nc1ccc(O)cc1
IC50 [2]: > 10 µM

COc1cc(CNC(=O)CCCc2ccc(-c3cccnc3)s2)ccc1O
IC50 [2]: > 100 µM
Activity (HUVEC): Non-Toxic
Activity (HaCaT): Non-Toxic
IC50 [8]: > 100 µM
IC50 [9]: > 100 µM
Time (Mus musculus [10]): 0.758 min
Time (Mus musculus [11]): 0.618 min
Time (Mus musculus [12]): 1.95 min
Activity [13]: Non-Toxic

O=C(CCCc1ccc(-c2cccnc2)s1)NCc1ccc(O)cc1
EC50 [1]: 27.1 µM
IC50 [2]: > 50 µM

COc1ccc(CNC(=O)CCCc2ccc(I)s2)cc1
IC50 [2]: > 100 µM

O=C(CCCc1ccc(-c2ccccc2)s1)NCc1ccc(Cl)c(Cl)c1
EC50 [1]: 12 µM
IC50 [2]: > 50 µM

O=C(CCCc1ccc(I)s1)Nc1ccc(O)cc1
EC50 [1]: 30.3 µM
IC50 [2]: 44.1 µM

O=C(CCCc1ccccc1)NCc1ccc(Cl)c(Cl)c1
EC50 [1]: 10.7 µM
IC50 [2]: 11.9 µM

COc1ccc(CNC(=O)CCCc2ccc(-c3cccnc3)s2)cc1
EC50 [3]: > 50 µM
IC50 [4]: > 50 µM
Efficacy [5]: 21%
EC50 [1]: > 50 µM
IC50 [2]: > 50 µM

COc1cc(CNC(=O)CCCc2ccc(I)s2)ccc1O
IC50 [2]: > 50 µM
Activity (HUVEC): Non-Toxic
Activity (HaCaT): Non-Toxic
IC50 [8]: > 50 µM
IC50 [9]: 16.8 µM
Activity [13]: Non-Toxic

COc1cc(CNC(=O)CCCc2ccccc2)ccc1O
EC50 [1]: 27.2 µM
IC50 [2]: 44.5 µM

O=C(CCCc1ccccc1)NCc1ccccc1
EC50 [3]: > 50 µM
IC50 [4]: > 100 µM
Efficacy [5]: < 10%
Activity [6]: inactive
IC50 [2]: > 100 µM

COc1ccc(CNC(=O)CCCc2ccccc2)cc1
IC50 [2]: > 100 µM

O=C(CCCc1ccc(-c2cccnc2)s1)NCCc1ccc(O)c(O)c1
EC50 [3]: > 10 µM
IC50 [4]: > 10 µM
Efficacy [5]: < 10%
Activity [6]: inactive
IC50 [2]: > 100 µM

COc1cc(CNC(=O)CCCc2ccc(-c3ccccc3)s2)ccc1O
EC50 [1]: 18.7 µM
IC50 [2]: 33.7 µM
IC50 [8]: 27.6 µM
IC50 [9]: 13.8 µM

O=C(CCCc1ccc(-c2ccccc2)s1)NCc1ccc(O)cc1
IC50 [2]: > 50 µM

O=C(CCCc1ccc(-c2cccnc2)s1)NCc1ccccc1
EC50 [3]: > 10 µM
IC50 [4]: > 100 µM
Efficacy [5]: < 10%
Activity [6]: inactive
IC50 [2]: > 100 µM
